Measurements taken from BindingDB's records for patent US12404295 (Idorsia Pharmaceuticals, 2025).
pIC50: −log10 of the molar value.

Target: Galectin-3 (Homo sapiens, UniProt P17931)
Assay: Competitive Binding Assay
Method: The inhibitory activity of compounds is determined in competitive binding assays. This spectrophotometric assay measures the binding of biotinylated human Gal-3 (hGal-3) or human Gal-1 (hGal-1), respectively, to a microplate-adsorbed glycoprotein, asialofetuin (ASF).Briefly, compounds are serially diluted in DMSO (working dilutions). […] Finally, 25 μL/well of ABTS substrate is added.

Galectin-3, sequence (P17931 whole entry): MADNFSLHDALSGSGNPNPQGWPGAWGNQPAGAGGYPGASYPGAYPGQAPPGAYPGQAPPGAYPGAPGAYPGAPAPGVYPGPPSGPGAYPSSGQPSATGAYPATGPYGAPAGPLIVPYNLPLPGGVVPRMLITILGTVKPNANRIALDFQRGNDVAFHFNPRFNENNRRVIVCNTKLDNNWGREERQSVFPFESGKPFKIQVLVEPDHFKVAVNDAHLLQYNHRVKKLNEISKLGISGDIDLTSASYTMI

SMILES	pIC50
Cc1nc([C@H](S[C@@H]2O[C@H](CO)[C@H](O)[C@H](n3cc(-c4cc(F)c(F)c(F)c4)nn3)[C@H]2O)C(C)(C)O)c(C)s1 [US12404295, Example 2.31.123S.]	5.33
OC[C@H]1O[C@@H](S[C@@H](c2ccccc2C2CC2)C2(O)CCC(F)(F)CC2)[C@H](O)[C@@H](n2cc(-c3cc(F)c(F)c(F)c3)nn2)[C@H]1O [US12404295, Example 2.44.106S.*]	6.03
CC(C)Cc1c(C(S[C@@H]2O[C@H](CO)[C@H](O)[C@H](n3cc(-c4cc(F)c(F)c(F)c4)nn3)[C@H]2O)C2(O)CCC(F)(F)CC2)noc1C1CC1 (stereo partly specified) [US12404295, Example 2.44.131.]	6.96
OC[C@H]1O[C@@H](S[C@@H](c2cccc(Cl)c2Cl)C2(O)CCC(F)(F)CC2)[C@H](O)[C@@H](n2cc(-c3cc(F)c(F)c(F)c3)nn2)[C@H]1O [US12404295, Example 2.44.113S.]	4.24
Cc1nc(C(S[C@@H]2O[C@H](CO)[C@H](O)[C@H](n3cc(-c4cc(F)c(F)c(F)c4)nn3)[C@H]2O)C(C)(C)O)c(C)s1 (stereo partly specified) [US12404295, Example 2.31.123.]	6.26
Cc1nc([C@@H](S[C@@H]2O[C@H](CO)[C@H](O)[C@H](n3cc(-c4cc(F)c(F)c(F)c4)nn3)[C@H]2O)C(C)(C)O)c(C)s1 [US12404295, Example 2.31.123R.]	6.55
OC[C@H]1O[C@@H](S[C@H](c2cccc(Cl)c2Cl)C2(O)CCC(F)(F)CC2)[C@H](O)[C@@H](n2cc(-c3cc(F)c(F)c(F)c3)nn2)[C@H]1O [US12404295, Example 2.44.113R.]	6.10
OC[C@H]1O[C@@H](S[C@@H](c2ncccc2C(F)(F)F)C2(O)CC(F)(F)C2)[C@H](O)[C@@H](n2cc(-c3cc(F)c(F)c(F)c3)nn2)[C@H]1O [US12404295, Example 2.35.125S.]	5.52
OC[C@H]1O[C@@H](SC(c2ncccc2C(F)(F)F)C2(O)CC(F)(F)C2)[C@H](O)[C@@H](n2cc(-c3cc(F)c(F)c(F)c3)nn2)[C@H]1O (stereo partly specified) [US12404295, Example 2.35.125.]	6.49
OC[C@H]1O[C@@H](S[C@H](c2ncccc2C(F)(F)F)C2(O)CC(F)(F)C2)[C@H](O)[C@@H](n2cc(-c3cc(F)c(F)c(F)c3)nn2)[C@H]1O [US12404295, Example 2.35.125R.]	7.00
OC[C@H]1O[C@@H](SC(c2cccc(Cl)c2Cl)C2(O)CCC(F)(F)CC2)[C@H](O)[C@@H](n2cc(-c3cc(F)c(F)c(F)c3)nn2)[C@H]1O (stereo partly specified) [US12404295, Example 2.44.113.]	6.44

Second part, the compound after the results:

pIC50	SMILES
5.11	CC1(C)CC(O)([C@@H](S[C@@H]2O[C@H](CO)[C@H](O)[C@H](n3cc(-c4cc(F)c(F)c(F)c4)nn3)[C@H]2O)c2ccccc2C(F)(F)F)CC(C)(C)O1 [US12404295, Example 2.42.102S.]
7.05	CC1(C)CC(O)([C@H](S[C@@H]2O[C@H](CO)[C@H](O)[C@H](n3cc(-c4cc(F)c(F)c(F)c4)nn3)[C@H]2O)c2ccccc2C(F)(F)F)CC(C)(C)O1 [US12404295, Example 2.42.102R.]
7.22	OC[C@H]1O[C@@H](S[C@H](c2ccccc2C2CC2)C2(O)CCC(F)(F)CC2)[C@H](O)[C@@H](n2cc(-c3cc(F)c(F)c(F)c3)nn2)[C@H]1O [US12404295, Example 2.44.106R.*]
5.82	Cc1ccccc1[C@@H](S[C@@H]1O[C@H](CO)[C@H](O)[C@H](n2cc(-c3cc(F)c(F)c(F)c3)nn2)[C@H]1O)[C@@]1(O)CCOC(C)(C)C1 [US12404295, Example 2.43.112RR.]
5.31	Cc1ccccc1[C@H](S[C@@H]1O[C@H](CO)[C@H](O)[C@H](n2cc(-c3cc(F)c(F)c(F)c3)nn2)[C@H]1O)[C@@]1(O)CCOC(C)(C)C1 [US12404295, Example 2.43.112SR.]
7.40	CC1(C)C[C@](O)([C@H](S[C@@H]2O[C@H](CO)[C@H](O)[C@H](n3cc(-c4cc(F)c(F)c(F)c4)nn3)[C@H]2O)c2ccccc2C(F)(F)F)CCO1 [US12404295, Example 2.43.102RS.]
5.41	CC1(C)C[C@@](O)([C@@H](S[C@@H]2O[C@H](CO)[C@H](O)[C@H](n3cc(-c4cc(F)c(F)c(F)c4)nn3)[C@H]2O)c2ccccc2C(F)(F)F)CCO1 [US12404295, Example 2.43.102SR.]
7.40	CO[C@@H]1[C@@H](n2cc(-c3cc(F)c(F)c(F)c3)nn2)[C@@H](O)[C@@H](CO)O[C@H]1S[C@H](c1ncccc1C)[C@]1(O)CCOC(C)(C)C1 [US12404295, Example 2.43.126RS.I.]
5.41	CC1(C)C[C@](O)([C@@H](S[C@@H]2O[C@H](CO)[C@H](O)[C@H](n3cc(-c4cc(F)c(F)c(F)c4)nn3)[C@H]2O)c2ccccc2C(F)(F)F)CCO1 [US12404295, Example 2.43.102SS.]
6.80	CO[C@@H]1[C@@H](n2cc(-c3cc(F)c(F)c(F)c3)nn2)[C@@H](O)[C@@H](CO)O[C@H]1SC(c1ncccc1C)C1(O)CCOC(C)(C)C1 (stereo partly specified) [US12404295, Example 2.43.126.I.]
5.14	Cc1ccccc1[C@H](S[C@@H]1O[C@H](CO)[C@H](O)[C@H](n2cc(-c3cc(F)c(F)c(F)c3)nn2)[C@H]1O)[C@]1(O)CCOC(C)(C)C1 [US12404295, Example 2.43.112SS.]
6.54	CC1(C)C[C@@](O)([C@H](S[C@@H]2O[C@H](CO)[C@H](O)[C@H](n3cc(-c4cc(F)c(F)c(F)c4)nn3)[C@H]2O)c2ccccc2C(F)(F)F)CCO1 [US12404295, Example 2.43.102RR.]
6.89	Cc1ccccc1[C@@H](S[C@@H]1O[C@H](CO)[C@H](O)[C@H](n2cc(-c3cc(F)c(F)c(F)c3)nn2)[C@H]1O)[C@]1(O)CCOC(C)(C)C1 [US12404295, Example 2.43.112RS.]
6.92	CC1(C)CC(O)(C(S[C@@H]2O[C@H](CO)[C@H](O)[C@H](n3cc(-c4cc(F)c(F)c(F)c4)nn3)[C@H]2O)c2ccccc2C(F)(F)F)CCO1 (stereo partly specified) [US12404295, Example 2.43.102.]
6.42	CC1(C)CC(O)(C(S[C@@H]2O[C@H](CO)[C@H](O)[C@H](n3cc(-c4cc(F)c(F)c(F)c4)nn3)[C@H]2O)c2ccccc2C(F)(F)F)CC(C)(C)O1 (stereo partly specified) [US12404295, Example 2.42.102.]
